What was measured:
Beta-secretase 1 = Beta-secretase 1 (Homo sapiens, UniProt P56817); test: Inhibition of human BACE1 expressed in Escherichia coli BL21(DE3) using Swedish mutant sequence Eu-EVNLDAEFK-Quencher substrate by homogeneous time resolved fluorescence assay
[1] = Permeability across human Caco-2 cell membrane; type: ADME, cell-based
Cathepsin D = Cathepsin D (Homo sapiens, UniProt P07339); test: Inhibition of human liver cathepsin D
Cathepsin D, sequence (P07339 65-162 limits assumed): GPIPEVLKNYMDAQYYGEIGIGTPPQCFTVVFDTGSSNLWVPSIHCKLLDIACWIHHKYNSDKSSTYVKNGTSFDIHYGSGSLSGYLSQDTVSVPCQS
Cathepsin D, sequence (P07339 169-412 limits assumed): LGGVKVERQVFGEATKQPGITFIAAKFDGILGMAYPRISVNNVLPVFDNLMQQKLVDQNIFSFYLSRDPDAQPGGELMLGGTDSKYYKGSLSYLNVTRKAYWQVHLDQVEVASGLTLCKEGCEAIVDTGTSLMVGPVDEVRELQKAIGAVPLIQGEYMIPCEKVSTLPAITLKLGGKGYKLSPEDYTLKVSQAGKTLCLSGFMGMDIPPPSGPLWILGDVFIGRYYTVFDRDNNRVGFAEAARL

Beta-secretase 1, sequence (P56817 whole entry): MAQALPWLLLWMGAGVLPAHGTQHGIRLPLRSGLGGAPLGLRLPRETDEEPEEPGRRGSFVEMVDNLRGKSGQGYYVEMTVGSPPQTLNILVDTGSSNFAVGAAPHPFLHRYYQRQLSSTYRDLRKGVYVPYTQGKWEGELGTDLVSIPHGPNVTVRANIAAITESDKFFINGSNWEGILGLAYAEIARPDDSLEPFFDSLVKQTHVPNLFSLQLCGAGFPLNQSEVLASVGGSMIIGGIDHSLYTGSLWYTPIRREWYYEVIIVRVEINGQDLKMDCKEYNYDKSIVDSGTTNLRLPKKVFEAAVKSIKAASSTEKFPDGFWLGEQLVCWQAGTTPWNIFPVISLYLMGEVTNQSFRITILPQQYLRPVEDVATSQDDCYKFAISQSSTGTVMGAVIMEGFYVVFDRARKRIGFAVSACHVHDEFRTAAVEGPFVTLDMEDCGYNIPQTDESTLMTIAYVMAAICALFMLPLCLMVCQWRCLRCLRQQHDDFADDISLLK

IC50 (Beta-secretase 1) | Papp [1] | Ki (Cathepsin D) | Structure (SMILES)
0.45 µM |  |  | CC(C)[C@H](NC(=O)C(O)(CCC(=O)Nc1cc(C(=O)N[C@H](C)c2ccccc2)cc(N(C)S(C)(=O)=O)c1)CCc1ccccc1)C(=O)NCc1ccccc1 (some centres undefined)
0.32 µM |  |  | CC(C)[C@H](NC(=O)C(O)(CCC(=O)Nc1cc(C(=O)N[C@H](C)c2ccccc2)cc(N(C)S(C)(=O)=O)c1)CCc1ccccc1)C(=O)Nc1ccccc1 (single isomer, unassigned)
2.5 µM |  |  | C[C@@H](NC(=O)c1cc(NC(=O)CC[C@](O)(Cc2ccccc2)C(=O)N[C@H]2c3ccccc3C[C@H]2O)cc(N(C)S(C)(=O)=O)c1)c1ccccc1
> 10 µM |  |  | C[C@@H](NC(=O)c1cc(NC(=O)C(O)(CCC(=O)N[C@H]2c3ccccc3C[C@H]2O)Cc2ccccc2)cc(N(C)S(C)(=O)=O)c1)c1ccc(F)cc1 (some centres undefined)
4.6 µM |  |  | C[C@@H](NC(=O)c1cc(NC(=O)CC[C@@](O)(Cc2ccccc2)C(=O)N[C@H]2c3ccccc3C[C@H]2O)cc(N(C)S(C)(=O)=O)c1)c1ccccc1
5.9 µM |  |  | CC(C)[C@H](NC(=O)CCC(O)(Cc1ccccc1)C(=O)Nc1cc(C(=O)N[C@H](C)c2ccc(F)cc2)cc(N(C)S(C)(=O)=O)c1)C(=O)NCc1ccccc1 (some centres undefined)
0.25 µM | < 1 ×10⁻⁶ cm/s | > 5 µM | C[C@@H](NC(=O)c1cc(NC(=O)CCC(O)(CCc2ccccc2)C(=O)N[C@H]2c3ccccc3C[C@H]2O)cc(N(C)S(C)(=O)=O)c1)c1ccccc1 (stereo in doubt; 37-(B))
0.57 µM |  |  | C[C@@H](NC(=O)c1cc(NC(=O)CCC(O)(CCc2ccccc2)C(=O)N[C@H]2c3ccccc3C[C@H]2O)cc(N(C)S(C)(=O)=O)c1)c1ccccc1 (stereo in doubt; 36-(A))
> 10 µM |  |  | COC(=O)c1ccc(CNC(=O)[C@@H](NC(=O)CCC(O)(Cc2ccccc2)C(=O)Nc2cc(C(=O)N[C@H](C)c3ccc(F)cc3)cc(N(C)S(C)(=O)=O)c2)C(C)C)cc1 (some centres undefined)
> 10 µM |  |  | CC(C)[C@H](NC(=O)CCC(O)(Cc1ccccc1)C(=O)Nc1cc(C(=O)N[C@H](C)c2ccc(F)cc2)cc(N(C)S(C)(=O)=O)c1)C(=O)Nc1ccc(C(=O)O)cc1 (some centres undefined)
4 µM |  |  | COC(=O)c1ccc(NC(=O)[C@@H](NC(=O)CCC(O)(Cc2ccccc2)C(=O)Nc2cc(C(=O)N[C@H](C)c3ccc(F)cc3)cc(N(C)S(C)(=O)=O)c2)C(C)C)cc1 (some centres undefined)
0.23 µM | 1.2 ×10⁻⁶ cm/s | > 5 µM | CC(C)[C@H](NC(=O)C(O)(CCC(=O)Nc1cc(C(=O)N[C@H](C)c2ccccc2)cc(N(C)S(C)(=O)=O)c1)CCc1ccccc1)C(=O)Nc1ccccc1 (stereo in doubt; 39-(A))
> 10 µM |  |  | CC(C)[C@H](NC(=O)CCC(O)(Cc1ccccc1)C(=O)Nc1cc(C(=O)N[C@H](C)c2ccc(F)cc2)cc(N(C)S(C)(=O)=O)c1)C(=O)NCc1ccc(C(=O)O)cc1 (some centres undefined)
> 10 µM |  |  | CC(C)[C@H](NC(=O)CCC(O)(CCc1ccccc1)C(=O)Nc1cc(C(=O)N[C@H](C)c2ccc(F)cc2)cc(N(C)S(C)(=O)=O)c1)C(=O)NCc1ccccc1 (some centres undefined)
5.6 µM |  |  | CC(C)[C@H](NC(=O)CCC(O)(CCc1ccccc1)C(=O)Nc1cc(C(=O)N[C@H](C)c2ccccc2)cc(N(C)S(C)(=O)=O)c1)C(=O)NCc1ccccc1 (some centres undefined)

Source: ChEMBL document CHEMBL1154025, “Design and synthesis of BACE-1 inhibitors utilizing a tertiary hydroxyl motif as the transition state mimic” (Bioorg Med Chem Lett, 2009)
